According to patent publication US20150031668A1, “CHROMAN DERIVATIVES AS TRPM8 INHIBITORS” (AMGEN INC., priority 2013, published 2015):

Experiments:
human TRPM8 = biological target: T1, human TRPM8 (Homo sapiens, UniProt Q7Z2W7); assay: Luminescence readout assay for measuring intracellular calcium (aequorin, CHO cells expressing human TRPM8; icilin, L-menthol or cold activation); type: cell-based; details: CHO cells expressing human TRPM8, icilin activation (1 μM), aequorin luminescence; read-out: hTRPM8 IC50
T1 construct: expressed in transfected cells; host or cells: Chinese hamster ovary (CHO) cells, T-REx tetracycline-inducible expression system (Invitrogen); co-transfected with pcDNA3.1 aequorin
How it was run: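 Activation was by 1 μM icilin, 100 μM L-menthol (test compound 2.5 min ahead) or cold buffer below 10° C (compound 1 min ahead). Calcium rise measured as aequorin luminescence in CHO cells with tetracycline-inducible human TRPM8.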

[1] = system: icilin induced wet-dog shakes; assay: Inhibition of icilin induced shaking (wet-dog shakes) in rats; type: in vivo, male Sprague Dawley rats; details: po; rat, dose 1 mg/kg
Protocol: Inhibition of Icilin Induced Shaking in Rats
Example compounds at doses ranging from 0.01 to 3 mg/kg (p.o, suspended in 5% Tween80/Oralplus or suspended in 2% HPMC-1% Tween-80 pH2.2 with MSA, 5 mL/kg) can be administered to male Sprague Dawley rats (200-300 g, Harlan, n=6-8/treatment) 2 h before icilin to assess the ability to block the spontaneous wet-dog shake phenomena induced by icilin (i.p., suspended in 100% PEG400 at 0.5 mg/kg, 1 mL/kg or p.o., suspended in 2% HPMC-1% Tween-80 at 3 mg/kg, 2.5 mL/kg). Spontaneous wet-dog shakes may be counted manually by two blinded observers or using LABORAS automation (Metris) for 30 min post-icilin. The synthesized and prophetic example compounds may be measured using these procedures and will be found to reduce the spontaneous wet dog shake phenomena induced by icilin.

T1 sequence (Q7Z2W7 whole entry): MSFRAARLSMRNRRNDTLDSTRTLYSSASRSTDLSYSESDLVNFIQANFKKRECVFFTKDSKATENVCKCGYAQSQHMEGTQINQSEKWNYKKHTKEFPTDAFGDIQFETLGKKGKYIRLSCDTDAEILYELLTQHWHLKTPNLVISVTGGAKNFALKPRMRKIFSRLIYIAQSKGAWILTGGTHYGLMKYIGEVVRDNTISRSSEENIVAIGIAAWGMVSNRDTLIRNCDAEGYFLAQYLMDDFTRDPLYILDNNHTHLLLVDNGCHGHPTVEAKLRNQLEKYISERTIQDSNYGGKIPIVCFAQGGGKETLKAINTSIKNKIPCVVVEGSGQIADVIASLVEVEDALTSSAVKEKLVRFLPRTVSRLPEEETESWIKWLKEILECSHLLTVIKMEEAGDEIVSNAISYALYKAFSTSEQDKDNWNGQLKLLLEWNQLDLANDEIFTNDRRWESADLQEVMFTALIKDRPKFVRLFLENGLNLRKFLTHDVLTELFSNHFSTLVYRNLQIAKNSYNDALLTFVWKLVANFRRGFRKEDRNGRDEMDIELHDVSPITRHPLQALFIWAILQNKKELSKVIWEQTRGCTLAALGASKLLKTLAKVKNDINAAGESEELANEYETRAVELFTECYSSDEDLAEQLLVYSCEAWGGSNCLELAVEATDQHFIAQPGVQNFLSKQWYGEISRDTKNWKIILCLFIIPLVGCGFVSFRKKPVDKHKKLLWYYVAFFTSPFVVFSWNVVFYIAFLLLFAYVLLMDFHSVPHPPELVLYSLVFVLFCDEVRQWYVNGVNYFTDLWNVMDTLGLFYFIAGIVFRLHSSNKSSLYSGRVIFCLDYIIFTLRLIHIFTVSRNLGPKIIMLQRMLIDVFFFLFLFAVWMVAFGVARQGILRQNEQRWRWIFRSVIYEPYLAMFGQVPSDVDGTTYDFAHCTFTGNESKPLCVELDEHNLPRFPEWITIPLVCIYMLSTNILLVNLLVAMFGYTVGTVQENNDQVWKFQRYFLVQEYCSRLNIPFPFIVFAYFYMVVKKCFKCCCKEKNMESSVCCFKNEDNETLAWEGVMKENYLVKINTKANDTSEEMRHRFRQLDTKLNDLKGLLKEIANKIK

Row | IC50 (human TRPM8) | Compound | inhibition in vivo at 1 mg/kg [1]
1 | 7 nM | O=C(N[C@]1(c2ccc(OC(F)(F)F)c(F)c2)CCOc2cccnc21)c1ccc2[nH]c(=O)oc2c1 (single isomer, unassigned) [Example 21] | 98%
2 | 21 nM | O=C(N[C@]1(c2ccc(OC(F)(F)F)cc2)CCOc2cccnc21)c1ccc(=O)[nH]c1 (single isomer, unassigned) [Example 58] | 97%
3 | 8 nM | O=C(N[C@]1(c2ccc(OC(F)(F)F)c(F)c2)CCOc2cccnc21)c1c[nH]c(=O)cn1 [Example 50, (S)-N-(4-(3-fluoro-4-(trifluoromethoxy)phenyl)-3,4-dihydro-2H-pyrano[3,2-b]pyridin-4-yl)-5-oxo-4,5-dihydropyrazine-2-carboxamide] | 67%
4 | 13 nM | O=C(N[C@]1(c2ccc(OC(F)(F)F)c(F)c2)CCOc2cccnc21)c1ccc(=O)[nH]c1 [Example 59, (S)—N-(4-(3-fluoro-4-(trifluoromethoxy)phenyl)-3,4-dihydro-2H-pyrano[3,2-b]pyridin-4-yl)-6-oxo-1,6-dihydropyridine-3-carboxamide] | 99%
5 | 6 nM | O=C(N[C@]1(c2ccc(C(F)(F)F)cc2)CCOc2cccnc21)c1ccc2oc(=O)[nH]c2c1 [Example 61, (S)-2-oxo-N-(4-(4-(trifluoromethyl)phenyl)-3,4-dihydro-2H-pyrano[3,2-b]pyridin-4-yl)-2,3-dihydrobenzo[d]oxazole-5-carboxamide] | 80%
6 | 14 nM | O=C(O)c1ccc(C(=O)N[C@]2(c3ccc(OC(F)(F)F)c(F)c3)CCOc3cccnc32)nc1 [Example 75] | 99%
7 | 28 nM | O=C(Nc1ncccn1)N[C@]1(c2ccc(OC(F)(F)F)c(F)c2)CCOc2cccnc21 [Example 83, (S)-1-(4-(3-fluoro-4-(trifluoromethoxy)phenyl)-3,4-dihydro-2H-pyrano[3,2-b]pyridin-4-yl)-3-(pyrimidin-2-yl)urea] | 59%
8 | 12 nM | O=C(Nc1cncnc1)N[C@]1(c2ccc(OC(F)(F)F)c(F)c2)CCOc2cccnc21 [Example 85, (S)-1-(4-(3-fluoro-4-(trifluoromethoxy)phenyl)-3,4-dihydro-2H-pyrano[3,2-b]pyridin-4-yl)-3-(pyrimidin-5-yl)urea] | 72%
9 | 16 nM | N#Cc1ccc(-c2ccc([C@@]3(NC(=O)c4ccc5oc(=O)[nH]c5c4)CCOc4cccnc43)cc2)cc1 [Example 155, (S)—N-(4-(4′-cyano-[1,1′-biphenyl]-4-yl)-3,4-dihydro-2H-pyrano[3,2-b]pyridin-4-yl)-2-oxo-2,3-dihydrobenzo[d]oxazole-5-carboxamide 2,2,2-trifluoroacetate] | 60%
10 | 6 nM | O=C(N[C@]1(c2ccc(OC(F)(F)F)c(F)c2)CCOc2cccnc21)c1ccc(CO)cc1 [Example 158, (S)—N-(4-(3-fluoro-4-(trifluoromethoxy)phenyl)-3,4-dihydro-2H-pyrano[3,2-b]pyridin-4-yl)-4-(hydroxymethyl)benzamide] | 92%
11 | 21 nM | O=C(N[C@]1(c2ccc(C(F)(F)F)c(F)c2)CCOc2cccnc21)c1ccc(=O)[nH]c1 [Example 170, (S)-N-(4-(3-fluoro-4-(trifluoromethyl)phenyl)-3,4-dihydro-2H-pyrano[3,2-b]pyridin-4-yl)-6-oxo-1,6-dihydropyridine-3-carboxamide] | 90%
12 | 7 nM | O=C(O)c1ccc(C(=O)N[C@]2(c3ccc(OC(F)(F)F)c(F)c3)CCOc3cccnc32)cc1 [Example 204, (S)-4-((4-(3-fluoro-4-(trifluoromethoxy)phenyl)-3,4-dihydro-2H-pyrano[3,2-b]pyridin-4-yl)carbamoyl) benzoic acid] | 98%
13 | 44 nM | O=C(N[C@]1(c2ccc(OC(F)(F)F)c(F)c2)CCOc2cccnc21)c1ccc(-c2noc(=O)[nH]2)cn1 [Example 283, (S)—N-(4-(3-fluoro-4-(trifluoromethoxy)phenyl)-3,4-dihydro-2H-pyrano[3,2-b]pyridin-4-yl)-5-(5-oxo-4,5-dihydro-1,2,4-oxadiazol-3-yl)picolinamide] | 78%
14 | 18 nM | C=Cc1cc(C(=O)N[C@]2(c3ccc(OC(F)(F)F)c(F)c3)CCOc3cccnc32)ccc1C(=O)O [Example 289, (S)-4-((4-(3-fluoro-4-(trifluoromethoxy)phenyl)-3,4-dihydro-2H-pyrano[3,2-b]pyridin-4-yl)carbamoyl)-2-vinylbenzoic acid] | 93%
15 | 9 nM | Cn1c(C(=O)O)cc2ccc(C(=O)N[C@]3(c4ccc(OC(F)(F)F)c(F)c4)CCOc4cccnc43)cc21 [Example 322, (S)-6-((4-(3-fluoro-4-(trifluoro-methoxy)phenyl)-3,4-dihydro-2H-pyrano[3,2-b]pyridin-4-yl)carbamoyl)-1-methyl-1H-indole-2-carboxylic acid] | –
16 | 316 nM | CC(=O)Nc1cc(C(=O)N[C@]2(c3ccc(OC(F)(F)F)c(F)c3)CCOc3cccnc32)ccc1C(=O)O [Example 323, (S)-2-acetamido-4-((4-(3-fluoro-4-(trifluoro-methoxy)phenyl)-3,4-dihydro-2H-pyrano[3,2-b]pyridin-4-yl)carbamoyl) benzoic acid] | –
17 | 103 nM | Cn1c(C(=O)O)ccc1C(=O)N[C@]1(c2ccc(OC(F)(F)F)c(F)c2)CCOc2cccnc21 [Example 324, (S)-5-((4-(3-fluoro-4-(trifluoro-methoxy)phenyl)-3,4-dihydro-2H-pyrano[3,2-b]pyridin-4-yl)carbamoyl)-1-methyl-1H-pyrrole-2-carboxylic acid] | –
18 | 118 nM | O=C(N[C@]1(c2ccc(OC(F)(F)F)c(F)c2)CCOc2cccnc21)c1ccc2cc(C(=O)O)[nH]c2c1 [Example 325, (S)-6-((4-(3-fluoro-4-(trifluoro-methoxy)phenyl)-3,4-dihydro-2H-pyrano[3,2-b]pyridin-4-yl)carbamoyl)-1H-indole-2-carboxylic acid] | –
19 | 1560 nM | O=C(N[C@]1(c2ccc(OC(F)(F)F)c(F)c2)CCOc2cccnc21)c1ccc(C(=O)O)nc1 [Example 328, (S)-5-((4-(3-fluoro-4-(trifluoro-methoxy)phenyl)-3,4-dihydro-2H-pyrano[3,2-b]pyridin-4-yl)carbamoyl) picolinic acid 2,2,2-trifluoroacetate] | –
20 | 231 nM | O=C(N[C@]1(c2ccc(OC(F)(F)F)c(F)c2)CCOc2cccnc21)c1csc(C(=O)O)n1 [Example 329, (S)-4-((4-(3-fluoro-4-(trifluoro-methoxy)phenyl)-3,4-dihydro-2H-pyrano[3,2-b]pyridin-4-yl)carbamoyl) thiazole-2-carboxylic acid] | –
21 | 94 nM | O=C(O)c1ccnc(C(=O)N[C@]2(c3ccc(OC(F)(F)F)c(F)c3)CCOc3cccnc32)c1 [Example 330, (S)-2-((4-(3-fluoro-4-(trifluoro-methoxy)phenyl)-3,4-dihydro-2H-pyrano[3,2-b]pyridin-4-yl)carbamoyl) isonicotinic acid] | –
22 | 34 nM | O=C(N[C@]1(c2ccc(OC(F)(F)F)c(F)c2)CCOc2cccnc21)c1ccc(C(=O)O)c(F)c1 [Example 331, (S)-2-fluoro-4-((4-(3-fluoro-4-(trifluoromethoxy)phenyl)-3,4-dihydro-2H-pyrano[3,2-b]pyridin-4-yl)carbamoyl) benzoic acid] | –
23 | 25 nM | Cc1cc(C(=O)N[C@]2(c3ccc(OC(F)(F)F)c(F)c3)CCOc3cccnc32)ncc1C(=O)O [Example 333, (S)-6-((4-(3-fluoro-4-(trifluoromethoxy)phenyl)-3,4-dihydro-2H-pyrano[3,2-b]pyridin-4-yl)carbamoyl)-4-methylnicotinic acid] | –
24 | 1010 nM | O=C(O)c1c[nH]c(C(=O)N[C@]2(c3ccc(OC(F)(F)F)c(F)c3)CCOc3cccnc32)c1 [Example 334, (S)-5-((4-(3-fluoro-4-(trifluoromethoxy)phenyl)-3,4-dihydro-2H-pyrano[3,2-b]pyridin-4-yl)carbamoyl)-1H-pyrrole-3-carboxylic acid] | –
25 | 51 nM | Cn1cc(C(=O)O)cc1C(=O)N[C@]1(c2ccc(OC(F)(F)F)c(F)c2)CCOc2cccnc21 [Example 335, (S)-5-((4-(3-fluoro-4-(trifluoromethoxy)phenyl)-3,4-dihydro-2H-pyrano[3,2-b]pyridin-4-yl)carbamoyl)-1-methyl-1H-pyrrole-3-carboxylic acid] | –
26 | 86 nM | O=C(O)c1ccc(C(=O)N[C@]2(c3ccc(OC(F)(F)F)c(F)c3)CCOc3cccnc32)s1 [Example 336, (S)-5-((4-(3-fluoro-4-(trifluoromethoxy)phenyl)-3,4-dihydro-2H-pyrano[3,2-b]pyridin-4-yl)carbamoyl) thiophene-2-carboxylic acid 2,2,2-trifluoroacetate] | –
27 | 70 nM | COc1cc(C(=O)N[C@]2(c3ccc(OC(F)(F)F)c(F)c3)CCOc3cccnc32)ccc1C(=O)O [Example 337, (S)-4-((4-(3-fluoro-4-(trifluoromethoxy)phenyl)-3,4-dihydro-2H-pyrano[3,2-b]pyridin-4-yl)carbamoyl)-2-methoxybenzoic acid] | –
